According to patent US20140187593A1, “DIAGNOSTIC TEST AND TREATMENT FOR A NE[…]” (priority 2012, published 2014):

Tested on: patients with VMAT2 mutation
Assay: Clinical response of the index case to vitamin B6 or folinic acid
Format: in vivo, human
Description: The index case was a person with global developmental delay and abnormal movements. They had first been brought to medical attention with hypotonia, loss of acquired head control, and paroxysmal stereotyped episodes of persistent eye deviation and crying lasting hours. Video-EEG monitoring had excluded seizures, and a symptom diagnosis of oculogyric crisis had been made. Development had been normal initially, but had slowed after presentation. […] […] […] They had axial hypotonia and appendicular hypertonia specifically involving extensor muscles of upper and lower extremities. Deep tendon reflexes were 2+/4 and plantars flexor. […] Gait was parkinsonian with typical shuffling, posture was stooped, and postural reflexes diminished. They walked with bilateral alternating dystonia of hands and feet with intermittent toe walking and foot inversion, and was unable to tandem walk.

| SMILES | Clinical improvement of symptoms |
| --- | --- |
| Nc1nc(=O)c2c([nH]1)NCC(CNc1ccc(C(=O)N[C@@H](CCC(=O)O)C(=O)O)cc1)N2C=O (mixture of isomers) [folinic acid] | no improvement |
| Cc1ncc(CO)c(CO)c1O.Cl [vitamin B6] | no improvement |
